Where a name gives a salt, the structure may show the parent alone.

Assay type in all cases: biochemical
The target in assay [1] is c-Abl (His-tagged recombinant human ABL1) (Homo sapiens (Human), UniProt P00519). The assay is described as follows: c-abl Kinase Assay (ADP-Glo). As to conditions: ATP (25 μM), Abltide substrate. As to the method:
ADP-Glo assay kit was purchased from Promega. Magnesium chloride (MgCl2), bovine serum albumin (BSA), ethylene glycol-bis(p-aminoethyl ether)-N,N,N′,N′-tetraacetic acid (EGTA), triton X-100, 1,4-dithiothreitol (DTT) and dimethyl sulfoxide (DMSO) were purchased from Sigma-Aldrich. HEPES buffer was purchased from Gibco. ABL1 kinase and Abltide were purchased from Signalchem.
c-Abl kinase activity was measured by Promega's ADP-Glo™ Assay. In this assay, His-tagged recombinant human ABL1 (0.25 ng/μl) is incubated with 5 μL of compounds (0.5% DMSO), 5 μL of Abltide (0.01 μg/μl) and 5 μL of ATP (25 μM) in buffer (50 mM HEPES, 7.5; 10 mM MgCl2; 1 mM EGTA; 0.05% BSA; 0.01% Triton X-100; 2 mM DTT). The assay was started by incubating the reaction mixture in a 96-well plate at 30° C. for 30-min. After the incubation, 25 μL ADP-Glo reagent was added and the reaction was incubated at room temperature for 40-min to stop the reaction and degrade residual ATP. The ADP product was then converted to ATP by adding 50 μL per well of detection reagent. Luminescence was detected after 30-min room temperature incubation with the Molecular device I3X plate reader. The IC50 values were calculated from a series of percent inhibition values determined at a range of inhibitor concentration using software routines as implemented in the GraphPad Prism 7 software and Sigma Plot 13.0.

For a further assay, the target named is LRRK2 (WT) (Homo sapiens (Human), UniProt Q5S007). Nature of the assay: LRRK2 Kinase Assay (Adapta). As to conditions: 70 μM ATP, LRRKtide substrate. As to the method: (§1) The LRRK2 and LRRK2 G2019S kinase assays were performed using the Adapta™ technology in ThermoFisher Scientific. This experiment was carried out according to the supplier's protocol. Briefly, assay conditions were as follows. The mixture of substrate (LRRKtide) and each kinase was prepared in 50 mM Tris pH 8.5, 0.01% BRIJ-35, 10 mM MgCl2, 1 mM EGTA, 0.02% NaN3. Assays were performed in the presence of 70 μM ATP and 100 μM ATP (KmATP) in LRRK2 and LRRK2 G2019S, respectively. The reaction was progressed at room temperature for 1 hour. Upon completion of kinase reaction, 5 μL of Detection Mix was added and after 60 min incubation time, the emission ratio of 665/615 nm was calculated.
LRRK2 (WT), sequence (Q5S007 whole entry): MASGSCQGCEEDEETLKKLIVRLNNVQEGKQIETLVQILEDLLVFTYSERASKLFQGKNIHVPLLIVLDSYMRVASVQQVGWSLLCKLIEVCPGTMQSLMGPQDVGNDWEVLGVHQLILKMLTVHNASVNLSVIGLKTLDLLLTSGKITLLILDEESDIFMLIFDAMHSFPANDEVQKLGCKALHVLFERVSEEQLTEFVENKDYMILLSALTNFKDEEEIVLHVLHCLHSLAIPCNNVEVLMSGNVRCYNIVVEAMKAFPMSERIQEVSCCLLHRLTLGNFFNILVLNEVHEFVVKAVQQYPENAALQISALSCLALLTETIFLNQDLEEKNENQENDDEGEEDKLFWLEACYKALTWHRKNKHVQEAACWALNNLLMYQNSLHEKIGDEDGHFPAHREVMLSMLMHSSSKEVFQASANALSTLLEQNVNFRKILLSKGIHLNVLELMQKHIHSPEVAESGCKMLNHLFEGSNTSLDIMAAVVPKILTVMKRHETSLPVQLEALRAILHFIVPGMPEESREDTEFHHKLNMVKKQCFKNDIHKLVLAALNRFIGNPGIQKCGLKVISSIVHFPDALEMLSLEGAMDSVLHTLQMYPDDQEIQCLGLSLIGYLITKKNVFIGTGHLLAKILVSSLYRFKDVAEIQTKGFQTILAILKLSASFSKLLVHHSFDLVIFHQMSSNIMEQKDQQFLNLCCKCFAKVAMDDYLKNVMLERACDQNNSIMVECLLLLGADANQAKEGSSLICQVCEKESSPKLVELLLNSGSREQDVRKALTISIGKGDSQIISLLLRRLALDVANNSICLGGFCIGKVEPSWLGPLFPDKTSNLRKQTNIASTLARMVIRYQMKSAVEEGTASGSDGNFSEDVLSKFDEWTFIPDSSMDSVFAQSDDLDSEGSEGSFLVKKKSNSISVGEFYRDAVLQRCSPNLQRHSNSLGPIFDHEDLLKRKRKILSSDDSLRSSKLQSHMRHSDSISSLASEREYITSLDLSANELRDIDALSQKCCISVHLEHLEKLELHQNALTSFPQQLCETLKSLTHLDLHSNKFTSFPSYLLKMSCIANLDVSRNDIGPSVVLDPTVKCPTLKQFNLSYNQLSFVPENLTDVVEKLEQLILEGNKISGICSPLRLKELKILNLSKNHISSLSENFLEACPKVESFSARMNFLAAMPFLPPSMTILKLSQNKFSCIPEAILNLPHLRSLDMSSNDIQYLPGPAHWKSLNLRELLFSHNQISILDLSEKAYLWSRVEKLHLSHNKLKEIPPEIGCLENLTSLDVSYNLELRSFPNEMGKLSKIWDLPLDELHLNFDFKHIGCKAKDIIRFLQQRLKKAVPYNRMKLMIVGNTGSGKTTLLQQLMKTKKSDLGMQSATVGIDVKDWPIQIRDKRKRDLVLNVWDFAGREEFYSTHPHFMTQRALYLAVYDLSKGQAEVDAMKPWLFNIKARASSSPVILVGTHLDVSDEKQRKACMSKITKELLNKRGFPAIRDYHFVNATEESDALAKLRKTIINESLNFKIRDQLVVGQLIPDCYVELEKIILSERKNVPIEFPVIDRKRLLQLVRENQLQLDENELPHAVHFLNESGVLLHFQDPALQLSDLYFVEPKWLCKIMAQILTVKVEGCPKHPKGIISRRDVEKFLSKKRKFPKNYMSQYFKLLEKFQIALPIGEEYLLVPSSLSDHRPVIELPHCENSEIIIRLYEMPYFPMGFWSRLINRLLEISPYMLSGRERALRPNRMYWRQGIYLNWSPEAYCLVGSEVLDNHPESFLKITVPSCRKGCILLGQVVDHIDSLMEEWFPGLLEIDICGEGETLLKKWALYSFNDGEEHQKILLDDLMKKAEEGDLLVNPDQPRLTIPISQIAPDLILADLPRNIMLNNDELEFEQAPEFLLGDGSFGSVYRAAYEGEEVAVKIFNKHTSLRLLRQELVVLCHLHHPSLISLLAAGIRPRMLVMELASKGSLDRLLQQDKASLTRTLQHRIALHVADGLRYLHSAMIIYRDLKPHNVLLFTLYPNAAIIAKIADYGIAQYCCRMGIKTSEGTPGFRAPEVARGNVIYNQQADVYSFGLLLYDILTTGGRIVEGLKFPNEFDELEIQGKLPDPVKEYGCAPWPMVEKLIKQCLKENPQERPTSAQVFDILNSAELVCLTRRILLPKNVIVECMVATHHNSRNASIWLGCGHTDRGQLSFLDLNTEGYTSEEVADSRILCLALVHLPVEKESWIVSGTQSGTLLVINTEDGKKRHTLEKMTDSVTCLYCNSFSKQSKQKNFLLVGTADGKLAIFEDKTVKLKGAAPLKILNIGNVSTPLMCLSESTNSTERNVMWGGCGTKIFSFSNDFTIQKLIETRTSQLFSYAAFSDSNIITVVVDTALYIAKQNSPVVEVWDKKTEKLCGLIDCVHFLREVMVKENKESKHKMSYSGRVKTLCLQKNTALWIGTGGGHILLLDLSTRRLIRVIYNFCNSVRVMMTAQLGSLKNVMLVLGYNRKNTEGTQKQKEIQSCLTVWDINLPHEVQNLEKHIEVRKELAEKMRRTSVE

The target in another assay is LRRK2 G2019S (Homo sapiens (Human), UniProt Q5S007, G2019S). Nature of the assay: LRRK2 G2019S Kinase Assay (Adapta). To be noted: 100 μM ATP, LRRKtide substrate; read-out: LRRK2_G2019S IC50. As to the method:
as §1

c-Abl (His-tagged recombinant human ABL1), sequence (P00519 whole entry): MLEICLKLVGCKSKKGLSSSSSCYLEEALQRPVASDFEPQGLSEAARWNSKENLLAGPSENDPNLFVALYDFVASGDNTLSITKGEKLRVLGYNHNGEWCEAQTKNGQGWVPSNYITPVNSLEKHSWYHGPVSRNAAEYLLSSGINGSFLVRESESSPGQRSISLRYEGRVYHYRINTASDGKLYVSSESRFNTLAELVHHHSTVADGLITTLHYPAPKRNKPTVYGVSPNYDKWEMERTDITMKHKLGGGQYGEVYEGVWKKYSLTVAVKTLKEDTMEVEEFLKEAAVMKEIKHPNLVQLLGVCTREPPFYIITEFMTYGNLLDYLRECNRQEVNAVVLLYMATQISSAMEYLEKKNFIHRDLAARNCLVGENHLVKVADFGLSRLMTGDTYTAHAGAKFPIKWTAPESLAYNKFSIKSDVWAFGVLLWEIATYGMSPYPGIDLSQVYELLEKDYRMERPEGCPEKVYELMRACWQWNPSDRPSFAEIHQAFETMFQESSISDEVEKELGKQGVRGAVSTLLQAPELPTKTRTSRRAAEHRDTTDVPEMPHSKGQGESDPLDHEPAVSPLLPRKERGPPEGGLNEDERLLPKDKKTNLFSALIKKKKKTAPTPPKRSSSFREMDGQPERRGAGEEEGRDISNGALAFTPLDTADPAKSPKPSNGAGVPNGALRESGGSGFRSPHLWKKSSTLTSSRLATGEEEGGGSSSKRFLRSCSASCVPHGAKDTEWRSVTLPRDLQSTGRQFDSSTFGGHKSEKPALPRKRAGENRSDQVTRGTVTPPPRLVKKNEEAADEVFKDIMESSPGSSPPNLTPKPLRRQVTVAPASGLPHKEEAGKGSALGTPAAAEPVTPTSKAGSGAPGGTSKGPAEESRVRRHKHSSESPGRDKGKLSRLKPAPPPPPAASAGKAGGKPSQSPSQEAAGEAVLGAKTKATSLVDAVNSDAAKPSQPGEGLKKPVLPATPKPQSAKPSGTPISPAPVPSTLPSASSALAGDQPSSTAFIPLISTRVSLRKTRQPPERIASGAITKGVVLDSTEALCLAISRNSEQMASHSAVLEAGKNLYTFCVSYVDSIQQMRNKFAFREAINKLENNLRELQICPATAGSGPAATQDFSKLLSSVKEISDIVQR
LRRK2 G2019S, sequence (Q5S007 whole entry G2019S): as the sequence (Q5S007 whole entry) above, with G2019S counted along it

Turning to `Cc1c(F)cccc1-c1ccc2nc(NC(=O)[C@@H]3C[C@@H]3F)cn2c1` [Example 1, (1S,2S)-2-fluoro-N-(6-(3-fluoro-2-methylphenyl)imidazo[1,2-a]pyridin-2-yl)cyclopropane-1-carboxamide Hydrochloride], the values for the 50% inhibitory concentration (IC50) (in assay [1]; at LRRK2 (WT); at LRRK2 G2019S) were less than 10 nM, 10 to 100 nM and 10 to 100 nM, respectively.

For `NCc1c(F)cccc1-c1ccc2nc(NC(=O)[C@@H]3C[C@@H]3F)cn2c1` [Example 74, (1S,2S)—N-(6-(2-(aminomethyl)-3-fluorophenyl)imidazo[1,2-a]pyridin-2-yl)-2-fluorocyclopropanecarboxamide], the half-maximal inhibitory concentration (IC50) (in assay [1]; at LRRK2 (WT); on LRRK2 G2019S) was greater than 1000 nM in each case.

`Cc1ccc2c(c1-c1ccc3nc(NC(=O)[C@@H]4C[C@@H]4F)cn3c1)CC(=O)N2` [Example 51, (1S,2S)-2-fluoro-N-(6-(5-methyl-2-oxoindolin-4-yl)imidazo[1,2-a]pyridin-2-yl)cyclopropane-1-carboxamide]: the IC50 in assay [1] was less than 10 nM; on LRRK2 (WT), greater than 1000 nM; on LRRK2 G2019S, greater than 1000 nM.

With `O=C1Cc2ccc(-c3ccc4nc(NC(=O)[C@@H]5C[C@@H]5F)cn4c3)cc2N1` [Example 35, (1S,2S)-2-fluoro-N-(6-(2-oxoindolin-6-yl)imidazo[1,2-a]pyridin-2-yl)cyclopropane-1-carboxamide], the IC50 was 10 to 100 nM in assay [1], greater than 1000 nM on LRRK2 (WT) and greater than 1000 nM on LRRK2 G2019S.

Take `CC(=O)Nc1ccc(C)c(-c2ccc3nc(NC(=O)[C@@H]4C[C@@H]4F)cn3c2)c1` [Example 25, (1S,2S)—N-(6-(5-acetamido-2-methylphenyl)imidazo[1,2-a]pyridin-2-yl)-2-fluorocyclopropane-1-carboxamide]: the concentration for half-maximal inhibition (IC50) in assay [1] was 10 to 100 nM; against LRRK2 (WT), greater than 1000 nM; at LRRK2 G2019S, 101 to 1000 nM.

Consider `COCCOCc1c(F)cccc1-c1ccc2nc(NC(=O)[C@@H]3C[C@@H]3F)cn2c1` [Example 82, (1S,2S)-2-fluoro-N-(6-(3-fluoro-2-((2-methoxyethoxy)methyl)phenyl)imidazo[1,2-a]pyridin-2-yl)cyclopropanecarboxamide], for which the IC50 in assay [1] was 10 to 100 nM; against LRRK2 (WT) it was greater than 1000 nM; on LRRK2 G2019S it was 101 to 1000 nM.

On to `Cc1c(-c2ccc3nc(NC(=O)[C@@H]4C[C@@H]4F)cn3c2)ccc(F)c1F` [Example 44, (1S,2S)—N-(6-(3,4-difluoro-2-methylphenyl)imidazo[1,2-a]pyridin-2-yl)-2-fluorocyclopropane-1-carboxamide], for which the 50% inhibitory concentration (IC50) in assay [1] is less than 10 nM; against LRRK2 (WT), 101 to 1000 nM; at LRRK2 G2019S, 10 to 100 nM.

`Cc1ccc(-c2cc[nH]c2)cc1-c1ccc2nc(NC(=O)[C@@H]3C[C@@H]3F)cn2c1` [Example 40, (1S,2S)-2-fluoro-N-(6-(2-methyl-5-(1H-pyrrol-3-yl)phenyl)imidazo[1,2-a]pyridin-2-yl)cyclopropane-1-carboxamide]: the IC50 was less than 10 nM in assay [1], 101 to 1000 nM on LRRK2 (WT) and 10 to 100 nM at LRRK2 G2019S.

As for `Cc1ccncc1-c1ccc2nc(NC(=O)[C@@H]3C[C@@H]3F)c(Cl)n2c1` [Example 7, (1S,2S)—N-(3-chloro-6-(4-methylpyridin-3-yl)imidazo[1,2-a]pyridin-2-yl)-2-fluorocyclopropane-1-carboxamide], the IC50 was 101 to 1000 nM in assay [1], greater than 1000 nM against LRRK2 (WT) and greater than 1000 nM at LRRK2 G2019S.

As to `Cc1ccsc1-c1ccc2nc(NC(=O)[C@@H]3C[C@@H]3F)cn2c1` [Example 41, (1S,2S)-2-fluoro-N-(6-(3-methylthiophen-2-yl)imidazo[1,2-a]pyridin-2-yl)cyclopropane-1-carboxamide], the values for the IC50 (in assay [1]; on LRRK2 (WT); on LRRK2 G2019S) were less than 10 nM, 10 to 100 nM and 10 to 100 nM, respectively.

Turning to `CSc1c(F)cccc1-c1ccc2nc(NC(=O)[C@@H]3C[C@@H]3F)cn2c1` [Example 66, (1S,2S)-2-fluoro-N-(6-(3-fluoro-2-(methylthio)phenyl)imidazo[1,2-a]pyridin-2-yl)cyclopropanecarboxamide], the half-maximal inhibitory concentration (IC50) in assay [1] was less than 10 nM; at LRRK2 (WT) it was 101 to 1000 nM; on LRRK2 G2019S, 10 to 100 nM.

`Cc1ccc(F)cc1-c1ccc2nc(NC(=O)[C@@H]3C[C@@H]3F)cn2c1` [Example 11, (1S,2S)-2-fluoro-N-(6-(5-fluoro-2-methylphenyl)imidazo[1,2-a]pyridin-2-yl)cyclopropane-1-carboxamide]: the IC50 in assay [1] is less than 10 nM; at LRRK2 (WT), 10 to 100 nM; at LRRK2 G2019S, 10 to 100 nM.

On to `Cc1cccc(Cl)c1-c1ccc2nc(NC(=O)[C@@H]3C[C@@H]3F)cn2c1` [Example 52, (1S,2S)—N-(6-(2-chloro-6-methylphenyl)imidazo[1,2-a]pyridin-2-yl)-2-fluorocyclopropane-1-carboxamide], for which the 50% inhibitory concentration (IC50) is less than 10 nM in assay [1], 101 to 1000 nM against LRRK2 (WT) and 10 to 100 nM at LRRK2 G2019S.

In the case of `Cc1c(F)cccc1-c1ccc2nc(NC(=O)[C@@H]3C[C@@H]3F)c(C)n2c1` [Example 8, (1S,2S)-2-fluoro-N-(6-(3-fluoro-2-methylphenyl)-3-methylimidazo[1,2-a]pyridin-2-yl)cyclopropane-1-carboxamide], the IC50 in assay [1] fell in the range of 10 to 100 nM; against LRRK2 (WT), 101 to 1000 nM; on LRRK2 G2019S, 101 to 1000 nM.

Take `Cc1ccc(C#N)cc1-c1ccc2nc(NC(=O)[C@@H]3C[C@@H]3F)cn2c1` [Example 17, (1S,2S)—N-(6-(5-cyano-2-methylphenyl)imidazo[1,2-a]pyridin-2-yl)-2-fluorocyclopropane-1-carboxamide]: the figures for the IC50 (in assay [1]; against LRRK2 (WT); at LRRK2 G2019S) were less than 10 nM, 101 to 1000 nM and 101 to 1000 nM, respectively.

With `Cc1c(F)cccc1-c1ccc2nc(NC(=O)C3CC3)cn2c1` [Example 70, N-(6-(3-fluoro-2-methylphenyl)imidazo[1,2-a]pyridin-2-yl)cyclopropanecarboxamide], the figures for the 50% inhibitory concentration (IC50) (in assay [1]; at LRRK2 (WT); on LRRK2 G2019S) were less than 10 nM, 10 to 100 nM and 10 to 100 nM, respectively.

As for `Cc1c(Cl)cccc1-c1ccc2nc(NC(=O)[C@@H]3C[C@@H]3F)cn2c1` [Example 30, (1S,2S)—N-(6-(3-chloro-2-methylphenyl)imidazo[1,2-a]pyridin-2-yl)-2-fluorocyclopropane-1-carboxamide], the 50% inhibitory concentration (IC50) is less than 10 nM in assay [1], 101 to 1000 nM against LRRK2 (WT) and 101 to 1000 nM at LRRK2 G2019S.

Consider `Cc1ccc2[nH]ccc2c1-c1ccc2nc(NC(=O)[C@@H]3C[C@@H]3F)cn2c1` [Example 15, (1S,2S)-2-fluoro-N-(6-(5-methyl-1H-indol-4-yl)imidazo[1,2-a]pyridin-2-yl)cyclopropane-1-carboxamide], for which the IC50 (in assay [1]; at LRRK2 (WT); on LRRK2 G2019S) was less than 10 nM each time.

Turning to `Cc1c(F)cccc1-c1ccc2nc(NC(=O)C3CC(F)C3)cn2c1` (stereo not drawn) [Example 78, 3-fluoro-N-(6-(3-fluoro-2-methylphenyl)imidazo[1,2-a]pyridin-2-yl)cyclobutanecarboxamide], the IC50 in assay [1] was in the range of 10 to 100 nM; against LRRK2 (WT), 101 to 1000 nM; on LRRK2 G2019S, 10 to 100 nM.

As for `Nc1ccc(-c2ccc3nc(NC(=O)[C@@H]4C[C@@H]4F)cn3c2)cn1` [Example 55, (1S,2S)—N-(6-(6-aminopyridin-3-yl)imidazo[1,2-a]pyridin-2-yl)-2-fluorocyclopropane-1-carboxamide], the half-maximal inhibitory concentration (IC50) in assay [1] lay in the range of 10 to 100 nM; against LRRK2 (WT), 101 to 1000 nM; on LRRK2 G2019S it was 101 to 1000 nM.

In the case of `Cc1ccc(Cl)cc1-c1ccc2nc(NC(=O)[C@@H]3C[C@@H]3F)cn2c1` [Example 26, (1S,2S)—N-(6-(5-chloro-2-methylphenyl)imidazo[1,2-a]pyridin-2-yl)-2-fluorocyclopropane-1-carboxamide], the half-inhibitory concentration (IC50) in assay [1] was less than 10 nM; on LRRK2 (WT), 101 to 1000 nM; at LRRK2 G2019S it was 101 to 1000 nM.

`Cc1c(F)cc(N)cc1-c1ccc2nc(NC(=O)[C@@H]3C[C@@H]3F)cn2c1` [Example 50, (1S,2S)—N-(6-(5-amino-3-fluoro-2-methylphenyl)imidazo[1,2-a]pyridin-2-yl)-2-fluorocyclopropane-1-carboxamide]: the results for the IC50 (in assay [1]; on LRRK2 (WT); on LRRK2 G2019S) were less than 10 nM, 10 to 100 nM and 10 to 100 nM, respectively.
